Test results taken from US12195482B1 (Arcus Biosciences, Inc., priority 2022, dated 2025).
pIC50: −log10 of the molar value.

Biological target: T1, Axl (Homo sapiens, UniProt P30530)
T1 sequence (P30530 26-894): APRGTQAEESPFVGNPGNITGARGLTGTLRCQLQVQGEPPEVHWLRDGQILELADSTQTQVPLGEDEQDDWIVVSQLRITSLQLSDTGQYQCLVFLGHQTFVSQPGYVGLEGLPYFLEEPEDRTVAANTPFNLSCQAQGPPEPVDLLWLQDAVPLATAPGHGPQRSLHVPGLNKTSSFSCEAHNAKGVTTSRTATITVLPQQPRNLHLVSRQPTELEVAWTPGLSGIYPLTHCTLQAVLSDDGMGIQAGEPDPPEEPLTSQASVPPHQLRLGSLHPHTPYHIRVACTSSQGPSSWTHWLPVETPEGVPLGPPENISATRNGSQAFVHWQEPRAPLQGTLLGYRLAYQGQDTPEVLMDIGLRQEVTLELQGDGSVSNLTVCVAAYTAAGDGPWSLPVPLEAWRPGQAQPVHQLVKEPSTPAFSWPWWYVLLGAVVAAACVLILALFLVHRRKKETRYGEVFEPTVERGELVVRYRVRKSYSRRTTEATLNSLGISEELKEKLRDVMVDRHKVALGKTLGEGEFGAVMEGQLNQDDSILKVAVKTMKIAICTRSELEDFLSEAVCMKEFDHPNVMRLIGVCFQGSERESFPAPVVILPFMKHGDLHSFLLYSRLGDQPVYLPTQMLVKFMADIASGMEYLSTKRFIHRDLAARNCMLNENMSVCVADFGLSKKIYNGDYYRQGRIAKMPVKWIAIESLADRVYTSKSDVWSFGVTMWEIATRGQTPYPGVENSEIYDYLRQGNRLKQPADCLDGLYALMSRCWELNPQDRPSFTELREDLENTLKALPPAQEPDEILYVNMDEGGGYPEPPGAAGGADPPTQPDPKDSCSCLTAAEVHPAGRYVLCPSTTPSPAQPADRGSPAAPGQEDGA
Experiment: Axl NanoBRET intracellular kinase assay (intracellular binding, K-5 tracer displacement)
Set-up: host or cells: HEK-293
Details: HEK-293 cells transfected with Axl-NanoLuc, 0.35 μM K-5 NanoBRET tracer; read-out: Cell Binding AXL
Experimental: Measuring Intracellular Binding of Axl Inhibitors
Axl NanoBRET™ intracellular kinase assay (Promega, N2540) was performed according to manufacturer's recommendation. In brief, HEK-293 cells are transiently transfected with Ax1-NanoLuc fusion vector (Promega, NV1071), utilizing Fugene HD transfection reagent (Promega, E2311) a day before experiment following manufacturer's recommendation.
The day of the assay, the cells were collected and resuspended in Opti-MEM media (ThermoFisher, 31985070) at 2e5 cells/mL concentration. Testing compounds were serial diluted and dispensed into a white 384 well polystyrene plate at 200 nL in 100% DMSO. 40 μL of resuspended cells is then added per well for a final condition of 8K cells/well with 0.5% DMSO. After one-hour compound pre-incubation at 37° C. and 5% CO2, cells were further incubated with 0.35 μM K-5 NanoBRET tracer for two-hours at 37° C. and 5% CO2. […] of 3× substrate plus Inhibitor solution was prepared according to kits manual and added to the cells followed by a 30 second pulse centrifugation spin. The plate was then immediately read utilizing an Envision (Perkin Elmer) plate reader. The BRET signal is measured by taking the ratio of the emissions reading at 610 nm and 450 nm. Compound binding is based on the decrease BRET signal caused by the displacement of the K-5 tracer. […] ICso value of compounds was determined by 4-parameter non-linear regression fitting of percent activity in GraphPad Prism software.

Compound | pIC50
Fc1cc(-c2c[nH]c3ncc(-c4ccc5c(c4)CC[C@@H](N4C6COCC4C6)CC5)cc23)ccc1-c1ccccn1 [Example 40, 6-[(7S)-2-{3-[3-Fluoro-4-(pyridin-2-yl)phenyl]-1H-pyrrolo[2,3-b]pyridin-5-yl}-6,7,8,9-tetrahydro-5H-benzo[7]annulen-7-yl]-3-oxa-6-azabicyclo[3.1.1]heptane] | 6.00 to 7.00
c1cc(-c2ccc(-c3c[nH]c4ncc(-c5ccc6c(c5)CC[C@@H](N5C7COCC5C7)CC6)cc34)cc2)ccn1 [Example 41, 6-[(7S)-2-{3-[4-(Pyridin-4-yl)phenyl]-1H-pyrrolo[2,3-b]pyridin-5-yl}-6,7,8,9-tetrahydro-5H-benzo[7]annulen-7-yl]-3-oxa-6-azabicyclo[3.1.1]heptane] | 6.00 to 7.00
Fc1cccnc1-c1ccc(-c2c[nH]c3ncc(-c4ccc5c(c4)CC[C@@H](N4C6COCC4C6)CC5)cc23)cc1 [Example 42, 6-[(7S)-2-{3-[4-(3-Fluoropyridin-2-yl)phenyl]-1H-pyrrolo[2,3-b]pyridin-5-yl}-6,7,8,9-tetrahydro-5H-benzo[7]annulen-7-yl]-3-oxa-6-azabicyclo[3.1.1]heptane] | 6.00 to 7.00
Clc1cccnc1-c1ccc(-c2c[nH]c3ncc(-c4ccc5c(c4)CC[C@@H](N4C6COCC4C6)CC5)cc23)cc1 [Example 43, 6-[(7S)-2-{3-[4-(3-Chloropyridin-2-yl)phenyl]-1H-pyrrolo[2,3-b]pyridin-5-yl}-6,7,8,9-tetrahydro-5H-benzo[7]annulen-7-yl]-3-oxa-6-azabicyclo[3.1.1]heptane] | 6.00 to 7.00
Clc1cc(-c2c[nH]c3ncc(-c4ccc5c(c4)CC[C@@H](N4C6COCC4C6)CC5)cc23)ccc1-c1ccccn1 [Example 44, 6-[(7S)-2-{3-[3-Chloro-4-(pyridin-2-yl)phenyl]-1H-pyrrolo[2,3-b]pyridin-5-yl}-6,7,8,9-tetrahydro-5H-benzo[7]annulen-7-yl]-3-oxa-6-azabicyclo[3.1.1]heptane] | > 7.00
c1cc(-n2cc(-c3c[nH]c4ncc(-c5ccc6c(c5)CC[C@@H](N5C7COCC5C7)CC6)cc34)cn2)ccn1 [Example 45, 6-[(7S)-2-{3-[1-(Pyridin-4-yl)-1H-pyrazol-4-yl]-1H-pyrrolo[2,3-b]pyridin-5-yl}-6,7,8,9-tetrahydro-5H-benzo[7]annulen-7-yl]-3-oxa-6-azabicyclo[3.1.1]heptane] | > 7.00
N#Cc1cccnc1-c1ccc(-c2c[nH]c3ncc(-c4ccc5c(c4)CC[C@@H](N4C6COCC4C6)CC5)cc23)cc1 [Example 46, 2-(4-{5-[(7S)-7-{3-Oxa-6-azabicyclo[3.1.1]heptan-6-yl}-6,7,8,9-tetrahydro-5H-benzo[7]annulen-2-yl]-1H-pyrrolo[2,3-b]pyridin-3-yl}phenyl)pyridine-3-carbonitrile] | > 7.00
Cc1cncnc1-c1ccc(-c2c[nH]c3ncc(-c4ccc5c(c4)CC[C@@H](N4C6COCC4C6)CC5)cc23)cc1 [Example 47, 6-[(7S)-2-{3-[4-(5-Methylpyrimidin-4-yl)phenyl]-1H-pyrrolo[2,3-b]pyridin-5-yl}-6,7,8,9-tetrahydro-5H-benzo[7]annulen-7-yl]-3-oxa-6-azabicyclo[3.1.1]heptane] | > 7.00
CN(C)C(=O)c1ccccc1-c1ccc(-c2c[nH]c3ncc(-c4ccc5c(c4)CC[C@@H](N4C6COCC4C6)CC5)cc23)cc1 [Example 92, N,N-Dimethyl-4′-{5-[(7S)-7-{3-oxa-6-azabicyclo[3.1.1]heptan-6-yl}-6,7,8,9-tetrahydro-5H-benzo[7]annulen-2-yl]-1H-pyrrolo[2,3-b]pyridin-3-yl}-[1,1′-biphenyl]-2-carboxamide] | > 7.00
CS(=O)(=O)c1ccccc1-c1ccc(-c2c[nH]c3ncc(-c4ccc5c(c4)CC[C@@H](N4C6COCC4C6)CC5)cc23)cc1 [Example 93, 6-[(7S)-2-(3-{2′-Methanesulfonyl-[1,1′-biphenyl]-4-yl}-1H-pyrrolo[2,3-b]pyridin-5-yl)-6,7,8,9-tetrahydro-5H-benzo[7]annulen-7-yl]-3-oxa-6-azabicyclo[3.1.1]heptane] | > 7.00
COc1cc(-c2c[nH]c3ncc(-c4ccc5c(c4)CC[C@@H](N4C6COCC4C6)CC5)cc23)ccc1-c1ccccn1 [Example 161, 6-[(7S)-2-{3-[3-Methoxy-4-(pyridin-2-yl)phenyl]-1H-pyrrolo[2,3-b]pyridin-5-yl}-6,7,8,9-tetrahydro-5H-benzo[7]annulen-7-yl]-3-oxa-6-azabicyclo[3.1.1]heptane] | 6.00 to 7.00

Now from value to compound:

pIC50 | Compound
> 7.00 | Cc1cccnc1-c1ccc(-c2c[nH]c3ncc(-c4ccc5c(c4)CC[C@@H](N4C6COCC4C6)CC5)cc23)cc1 [Example 1, 6-[(7S)-2-{3-[4-(3-Methylpyridin-2-yl)phenyl]-1H-pyrrolo[2,3-b]pyridin-5-yl}-6,7,8,9-tetrahydro-5H-benzo[7]annulen-7-yl]-3-oxa-6-azabicyclo[3.1.1]heptane]
> 7.00 | Cc1cccnc1-c1ccc(-c2n[nH]c3ncc(-c4ccc5c(c4)CC[C@@H](N4C6COCC4C6)CC5)cc23)cc1 [Example 2, 6-[(7S)-2-{3-[4-(3-Methylpyridin-2-yl)phenyl]-2H-pyrazolo[3,4-b]pyridin-5-yl}-6,7,8,9-tetrahydro-5H-benzo[7]annulen-7-yl]-3-oxa-6-azabicyclo[3.1.1]heptane]
6.00 to 7.00 | Cc1nncn1-c1ccc(-c2n[nH]c3ncc(-c4ccc5c(c4)CC[C@@H](N4C6COCC4C6)CC5)cc23)cc1 [Example 11, 6-[(7S)-2-{3-[4-(3-Methyl-4H-1,2,4-triazol-4-yl)phenyl]-1H-pyrazolo[3,4-b]pyridin-5-yl}-6,7,8,9-tetrahydro-5H-benzo[7]annulen-7-yl]-3-oxa-6-azabicyclo[3.1.1]heptane]
> 7.00 | Cc1nccnc1-c1ccc(-c2c[nH]c3ncc(-c4ccc5c(c4)CC[C@@H](N4C6COCC4C6)CC5)cc23)cc1 [Example 48, 6-[(7S)-2-{3-[4-(3-Methylpyrazin-2-yl)phenyl]-1H-pyrrolo[2,3-b]pyridin-5-yl}-6,7,8,9-tetrahydro-5H-benzo[7]annulen-7-yl]-3-oxa-6-azabicyclo[3.1.1]heptane]
> 7.00 | Cc1ccnnc1-c1ccc(-c2c[nH]c3ncc(-c4ccc5c(c4)CC[C@@H](N4C6COCC4C6)CC5)cc23)cc1 [Example 49, 6-[(7S)-2-{3-[4-(4-Methylpyridazin-3-yl)phenyl]-1H-pyrrolo[2,3-b]pyridin-5-yl}-6,7,8,9-tetrahydro-5H-benzo[7]annulen-7-yl]-3-oxa-6-azabicyclo[3.1.1]heptane]
> 7.00 | C[C@@H]1CCCN1[C@@]1(C)CCc2ccc(-c3cnc4[nH]nc(-c5ccc(-c6ncco6)cc5)c4c3)cc2CC1 [Example 90, 2-(4-{5-[(7S)-7-Methyl-7-[(2R)-2-methylpyrrolidin-1-yl]-6,7,8,9-tetrahydro-5H-benzo[7]annulen-2-yl]-2H-pyrazolo[3,4-b]pyridin-3-yl}phenyl)-1,3-oxazole]
> 7.00 | C[C@@H]1CCCN1[C@@]1(C)CCc2ccc(-c3cnc4[nH]nc(-c5ccc(-c6nccs6)cc5)c4c3)cc2CC1 [Example 91, 2-(4-{5-[(7S)-7-Methyl-7-[(2R)-2-methylpyrrolidin-1-yl]-6,7,8,9-tetrahydro-5H-benzo[7]annulen-2-yl]-2H-pyrazolo[3,4-b]pyridin-3-yl}phenyl)-1,3-thiazole]
6.00 to 7.00 | c1cncc(-c2ccc(-c3n[nH]c4ncc(-c5ccc6c(c5)CC[C@@H](N5C7COCC5C7)CC6)cc34)cc2)c1 [Example 157, 6-[(7S)-2-{3-[4-(Pyridin-3-yl)phenyl]-2H-pyrazolo[3,4-b]pyridin-5-yl}-6,7,8,9-tetrahydro-5H-benzo[7]annulen-7-yl]-3-oxa-6-azabicyclo[3.1.1]heptane]
6.00 to 7.00 | COc1cc(-c2n[nH]c3ncc(-c4ccc5c(c4)CC[C@@H](N4C6COCC4C6)CC5)cc23)ccc1-c1ccccn1 [Example 160, 6-[(7S)-2-{3-[3-Methoxy-4-(pyridin-2-yl)phenyl]-2H-pyrazolo[3,4-b]pyridin-5-yl}-6,7,8,9-tetrahydro-5H-benzo[7]annulen-7-yl]-3-oxa-6-azabicyclo[3.1.1]heptane]
